Reference: patent US8212016B2, “NPC1L1 orthologues” (Schering Corporation, priority 2006, dated 2012)
Where two headings read alike, the source gives them in different places.

Tests used:
Assay in all cases: Fluorescence NPC1L1 binding assay, HEK-293 cells, BODIPY-labeled compound 1
rat NPC1L1 = target: T1, rat NPC1L1 (Rattus norvegicus, UniProt Q6T3U3, A349V/E317P/G318E/K324N/L297S); conditions: Rat NPC1L1, competition with compound 1; read-out: Ki
T1 construct: expressed in transfected cells

hamster NPC1L1 = hamster NPC1L1 (Mesocricetus auratus, UniProt A0MJA8)
canine NPC1L1 = canine NPC1L1 (Canis lupus familiaris, UniProt A0MJA4)

Ki (rat NPC1L1): 0.352 µM
Ki (hamster NPC1L1; Hamster NPC1L1, competition with compound 1, read-out: Ki): 0.37 µM
Ki (hamster NPC1L1; Table 3, Hamster, read-out: Ki Hamster NPC1L1): 0.371 µM
Ki (canine NPC1L1; Canine NPC1L1, competition with compound 1, read-out: Ki): 0.192 µM
Ki (canine NPC1L1; Table 3, Dog, read-out: Ki Dog NPC1L1): 0.19 µM
Structure (SMILES): O=C(O)[C@H]1O[C@@H](Oc2ccc([C@@H]3[C@@H](CC[C@H](O)c4ccc(F)cc4)C(=O)N3c3ccc(F)cc3)cc2)[C@H](O)[C@@H](O)[C@@H]1O [compound 4, glucuronidated ezetimibe]
